Reference: ChEMBL document CHEMBL3885881, “DrugMatrix”

Species: Rattus norvegicus
Assay: DrugMatrix - Regimen: Daily Repeat
Format: toxicity, organism-based, Sprague-Dawley
Parameters: regimen Daily Repeat, gender Male, age 6-8 weeks
Conditions: in vivo, sc, route subcutaneous, […]; for ABSOLUTE BASOPHIL / ABSOLUTE EOSINOPHIL / ABSOLUTE LYMPHOCYTE / ABSOLUTE MONOCYTE / ABSOLUTE SEGMENTED NEUTROPHIL / BASOPHIL / EOSINOPHIL / ERYTHROCYTE COUNT / HEMATOCRIT / HEMOGLOBIN / LEUKOCYTE COUNT / LYMPHOCYTE / MEAN CORPUSCULAR HEMOGLOBIN / MEAN CORPUSCULAR HEMOGLOBIN CONCENTRATION / MEAN CORPUSCULAR VOLUME / MONOCYTE / NEUTROPHIL / NUCLEATED RED BLOOD CELLS / PLATELET COUNT: tissue Blood; for ALANINE AMINOTRANSFERASE / ALBUMIN / ALKALINE PHOSPHATASE / ASPARTATE AMINOTRANSFERASE / BLOOD UREA NITROGEN / CARBON DIOXIDE / CHLORIDE / CHOLESTEROL / CREATINE PHOSPHOKINASE / CREATININE / GLUCOSE / LACTATE DEHYDROGENASE / LIPASE / PHOSPHORUS / POTASSIUM / SODIUM / TOTAL BILIRUBIN / TOTAL PROTEIN / URIC ACID: tissue Plasma
[1] = 0 mg/kg, 72 h, dose level Control, time 3 day
[2] = 0 mg/kg, 120 h, dose level Control, time 5 day
[3] = 27 mg/kg, 72 h, dose level Low, time 3 day

With Clc1ccc(CSC(Cn2ccnc2)c2ccc(Cl)cc2Cl)cc1 (centres undefined) [SULCONAZOLE] as the compound, how does the “ABSOLUTE BASOPHIL” value [1] read?
The value was 0 CELLS/uL.

What about the “ABSOLUTE EOSINOPHIL” value [1] of the same compound?
The value was 42.67 CELLS/uL.

And the “ABSOLUTE LYMPHOCYTE” value [1]?
Its value is 10202 CELLS/uL.

What about the “ABSOLUTE MONOCYTE” value [1] of the same compound?
The value was 261.5 CELLS/uL.

What about the “ABSOLUTE SEGMENTED NEUTROPHIL” value [1] of the same compound?
Its value is 2193.83 CELLS/uL.

What about the BASOPHIL [1] of the same compound?
Its BASOPHIL is 0%.

And the EOSINOPHIL [1]?
The EOSINOPHIL was 0.33%.

And the “ERYTHROCYTE COUNT” value [1]?
The value was 5.63 x10E6/uL.

And the HEMATOCRIT [1]?
The HEMATOCRIT was 35.35%.

And the HEMOGLOBIN [1]?
The HEMOGLOBIN was 13.07 G/DL.

What about the “LEUKOCYTE COUNT” value [1] of the same compound?
Its value is 12.7 x10E3/uL.

And the LYMPHOCYTE [1]?
The LYMPHOCYTE was 81.17%.

What about the “MEAN CORPUSCULAR HEMOGLOBIN” value [1] of the same compound?
The value was 23.23 pg.

And the “MEAN CORPUSCULAR HEMOGLOBIN CONCENTRATION” value [1]?
Its value is 36.97 G/DL.

And the “MEAN CORPUSCULAR VOLUME” value [1]?
The value was 62.82 fL.

And the MONOCYTE [1]?
Its MONOCYTE is 2%.

What about the NEUTROPHIL [1] of the same compound?
The NEUTROPHIL was 16.5%.

What about the “NUCLEATED RED BLOOD CELLS” value [1] of the same compound?
The value was 0 /100WBC.

What about the “PLATELET COUNT” value [1] of the same compound?
The value was 1180.33 x10E3/uL.

And the “ALANINE AMINOTRANSFERASE” value [1]?
The value was 48.67 u/L.

And the ALBUMIN [1]?
Its ALBUMIN is 4.08 G/DL.

What about the “ALKALINE PHOSPHATASE” value [1] of the same compound?
Its value is 360.67 u/L.

And the “ASPARTATE AMINOTRANSFERASE” value [1]?
Its value is 85.5 u/L.

And the “BLOOD UREA NITROGEN” value [1]?
Its value is 17.83 mg/dL.

And the “CARBON DIOXIDE” value [1]?
The value was 26.17 mmol/L.

What about the CHLORIDE [1] of the same compound?
The CHLORIDE was 101.83 MEQ/L.

What about the CHOLESTEROL [1] of the same compound?
Its CHOLESTEROL is 71 mg/dL.

What about the “CREATINE PHOSPHOKINASE” value [1] of the same compound?
The value was 515.17 u/L.

And the CREATININE [1]?
Its CREATININE is 0.22 mg/dL.

And the GLUCOSE [1]?
The GLUCOSE was 192.5 mg/dL.

And the “LACTATE DEHYDROGENASE” value [1]?
Its value is 214.67 u/L.

And the LIPASE [1]?
Its LIPASE is 8.5 u/L.

What about the PHOSPHORUS [1] of the same compound?
Its PHOSPHORUS is 12.95 mg/dL.

And the POTASSIUM [1]?
Its POTASSIUM is 6.39 MEQ/L.

What about the SODIUM [1] of the same compound?
The SODIUM was 142.38 MEQ/L.

And the “TOTAL BILIRUBIN” value [1]?
Its value is 0.18 mg/dL.

What about the “TOTAL PROTEIN” value [1] of the same compound?
Its value is 5.95 G/DL.

What about the “URIC ACID” value [1] of the same compound?
Its value is 1.83 mg/dL.

And the “ABSOLUTE BASOPHIL” value [2]?
Its value is 0 CELLS/uL.

And the “ABSOLUTE EOSINOPHIL” value [2]?
The value was 188.5 CELLS/uL.

And the “ABSOLUTE LYMPHOCYTE” value [2]?
Its value is 12360.83 CELLS/uL.

And the “ABSOLUTE MONOCYTE” value [2]?
Its value is 64.33 CELLS/uL.

What about the “ABSOLUTE SEGMENTED NEUTROPHIL” value [2] of the same compound?
Its value is 1986.33 CELLS/uL.

And the BASOPHIL [2]?
The BASOPHIL was 0%.

And the EOSINOPHIL [2]?
Its EOSINOPHIL is 1.33%.

What about the “ERYTHROCYTE COUNT” value [2] of the same compound?
The value was 5.52 x10E6/uL.

What about the HEMATOCRIT [2] of the same compound?
The HEMATOCRIT was 35.82%.

What about the HEMOGLOBIN [2] of the same compound?
The HEMOGLOBIN was 13.25 G/DL.

What about the “LEUKOCYTE COUNT” value [2] of the same compound?
The value was 14.6 x10E3/uL.

And the LYMPHOCYTE [2]?
The LYMPHOCYTE was 84.5%.

What about the “MEAN CORPUSCULAR HEMOGLOBIN” value [2] of the same compound?
The value was 24.05 pg.

What about the “MEAN CORPUSCULAR HEMOGLOBIN CONCENTRATION” value [2] of the same compound?
Its value is 36.98 G/DL.

What about the “MEAN CORPUSCULAR VOLUME” value [2] of the same compound?
The value was 64.97 fL.

And the MONOCYTE [2]?
The MONOCYTE was 0.5%.

What about the NEUTROPHIL [2] of the same compound?
Its NEUTROPHIL is 13.67%.

And the “NUCLEATED RED BLOOD CELLS” value [2]?
Its value is 0 /100WBC.

And the “PLATELET COUNT” value [2]?
The value was 1297.83 x10E3/uL.

What about the “ALANINE AMINOTRANSFERASE” value [2] of the same compound?
Its value is 51.17 u/L.

And the ALBUMIN [2]?
Its ALBUMIN is 4.08 G/DL.

What about the “ALKALINE PHOSPHATASE” value [2] of the same compound?
Its value is 393.17 u/L.

What about the “ASPARTATE AMINOTRANSFERASE” value [2] of the same compound?
Its value is 111 u/L.

What about the “BLOOD UREA NITROGEN” value [2] of the same compound?
Its value is 18.17 mg/dL.

And the “CARBON DIOXIDE” value [2]?
Its value is 25 mmol/L.

What about the CHLORIDE [2] of the same compound?
Its CHLORIDE is 105.17 MEQ/L.

And the CHOLESTEROL [2]?
The CHOLESTEROL was 65.5 mg/dL.

And the “CREATINE PHOSPHOKINASE” value [2]?
The value was 911.5 u/L.

And the CREATININE [2]?
Its CREATININE is 0.21 mg/dL.

What about the GLUCOSE [2] of the same compound?
The GLUCOSE was 183 mg/dL.

And the “LACTATE DEHYDROGENASE” value [2]?
Its value is 189 u/L.

What about the LIPASE [2] of the same compound?
Its LIPASE is 8.33 u/L.

What about the PHOSPHORUS [2] of the same compound?
The PHOSPHORUS was 12.78 mg/dL.

What about the POTASSIUM [2] of the same compound?
The POTASSIUM was 6.05 MEQ/L.

And the SODIUM [2]?
The SODIUM was 144.57 MEQ/L.

And the “TOTAL BILIRUBIN” value [2]?
Its value is 0.25 mg/dL.

What about the “TOTAL PROTEIN” value [2] of the same compound?
Its value is 5.83 G/DL.

And the “URIC ACID” value [2]?
Its value is 1.58 mg/dL.

And the “ABSOLUTE BASOPHIL” value [3]?
Its value is 0 CELLS/uL.

What about the “ABSOLUTE EOSINOPHIL” value [3] of the same compound?
Its value is 84.67 CELLS/uL.

What about the “ABSOLUTE LYMPHOCYTE” value [3] of the same compound?
The value was 11847.67 CELLS/uL.

What about the “ABSOLUTE MONOCYTE” value [3] of the same compound?
The value was 101 CELLS/uL.

And the “ABSOLUTE SEGMENTED NEUTROPHIL” value [3]?
The value was 2233.33 CELLS/uL.

And the BASOPHIL [3]?
Its BASOPHIL is 0%.

And the EOSINOPHIL [3]?
Its EOSINOPHIL is 0.67%.

And the “ERYTHROCYTE COUNT” value [3]?
Its value is 5.29 x10E6/uL.

What about the HEMATOCRIT [3] of the same compound?
Its HEMATOCRIT is 32.9%.

And the HEMOGLOBIN [3]?
Its HEMOGLOBIN is 12.1 G/DL.

What about the “LEUKOCYTE COUNT” value [3] of the same compound?
Its value is 14.27 x10E3/uL.

What about the LYMPHOCYTE [3] of the same compound?
The LYMPHOCYTE was 83.33%.

What about the “MEAN CORPUSCULAR HEMOGLOBIN” value [3] of the same compound?
Its value is 22.9 pg.

What about the “MEAN CORPUSCULAR HEMOGLOBIN CONCENTRATION” value [3] of the same compound?
Its value is 36.8 G/DL.

And the “MEAN CORPUSCULAR VOLUME” value [3]?
Its value is 62.23 fL.

What about the MONOCYTE [3] of the same compound?
The MONOCYTE was 0.67%.

And the NEUTROPHIL [3]?
The NEUTROPHIL was 15.33%.

And the “NUCLEATED RED BLOOD CELLS” value [3]?
The value was 0 /100WBC.

And the “PLATELET COUNT” value [3]?
Its value is 979.33 x10E3/uL.

And the “ALANINE AMINOTRANSFERASE” value [3]?
Its value is 50.67 u/L.

And the ALBUMIN [3]?
Its ALBUMIN is 4.07 G/DL.

And the “ALKALINE PHOSPHATASE” value [3]?
Its value is 355.67 u/L.

And the “ASPARTATE AMINOTRANSFERASE” value [3]?
The value was 89 u/L.

What about the “BLOOD UREA NITROGEN” value [3] of the same compound?
Its value is 18 mg/dL.

What about the “CARBON DIOXIDE” value [3] of the same compound?
The value was 26.33 mmol/L.

What about the CHLORIDE [3] of the same compound?
Its CHLORIDE is 105.67 MEQ/L.

And the CHOLESTEROL [3]?
The CHOLESTEROL was 74.33 mg/dL.

What about the “CREATINE PHOSPHOKINASE” value [3] of the same compound?
The value was 269.33 u/L.

What about the CREATININE [3] of the same compound?
Its CREATININE is 0.22 mg/dL.

What about the GLUCOSE [3] of the same compound?
The GLUCOSE was 174 mg/dL.

And the “LACTATE DEHYDROGENASE” value [3]?
Its value is 83.33 u/L.

And the LIPASE [3]?
Its LIPASE is 8.33 u/L.

What about the PHOSPHORUS [3] of the same compound?
The PHOSPHORUS was 14.23 mg/dL.

What about the POTASSIUM [3] of the same compound?
The POTASSIUM was 5.88 MEQ/L.

And the SODIUM [3]?
The SODIUM was 146.57 MEQ/L.

And the “TOTAL BILIRUBIN” value [3]?
The value was 0.17 mg/dL.

And the “TOTAL PROTEIN” value [3]?
The value was 5.83 G/DL.

What about the “URIC ACID” value [3] of the same compound?
The value was 1.5 mg/dL.
